Experimental data published in PubChem BioAssay AID1996.
Converted amounts (≈) assume the structure as drawn.

Conditions: buffer; pH 7.4; 200.0 µM

Row | SMILES | solubility kinetic [µg/mL]
1 | COC(=O)c1cc(S(=O)(=O)N2CCC(C)CC2)cn1C | 41.9 (≈ 139 µM)
2 | Cc1cc(C)cc(OCC(O)CN2CC(C)OC(C)C2)c1.Cl (configuration not stated) | > 49.5
3 | CCOc1ccc(NC(=O)CCN2C(=S)NC(C)(C)CC2C)cc1 (configuration not stated) | 41.5 (≈ 119 µM)
4 | O=C(C1Cc2ccccc2CN1S(=O)(=O)c1ccccc1[N+](=O)[O-])N1CCOCC1 (configuration not stated) | 63.7 (≈ 148 µM)
5 | COc1ccc(CSc2nc(O)cc(=O)n2CC(C)C)cc1F | > 50.8
6 | CC(C)CC(=O)NC(c1ccccc1)c1c(O)ccc2ccccc12 (configuration not stated) | < 0.7
7 | CCCCN(CC)Cc1c(C)[nH]c2c(ccc3ccccc32)c1=O | > 48.4
8 | NS(=O)(=O)c1ccc(NC(=S)NC(=O)C2CCCCC2)cc1 | > 51.2
9 | Cc1ccc(N=C2NC(=O)CS2)cc1C | 32.7 (≈ 148 µM)
10 | Cc1ccc(Cl)cc1N1C(=O)CC(C)(C)CC1=O | 15.7 (≈ 59.1 µM)
11 | Cc1ccc(-c2cn(-c3ccccc3)c(=S)[nH]2)cc1C | 16.6 (≈ 59.2 µM)
12 | CCOC(=O)c1ccc(N)cc1 | > 24.8
13 | Cn1cc(C(=O)CCl)c2ccccc21 | > 31.1
14 | Cc1ccc(NC(=O)N2CCC(c3ccccc3)C2)cc1C (configuration not stated) | 2.6 (≈ 8.83 µM)
15 | Cc1onc(-c2ccccc2Cl)c1C(=O)NCc1ccc(F)cc1 | 45.3 (≈ 131 µM)
16 | O=C1N=C(N2CCCC2)S/C1=C\C=C\c1ccccc1 | 10.2 (≈ 35.9 µM)
17 | CNC(=S)Nc1cc2oc3ccccc3c2cc1OC | 33.7 (≈ 118 µM)
18 | Cc1onc(C(=O)Nc2ccccc2C(F)(F)F)c1[N+](=O)[O-] | > 47.3
19 | Cc1ccc(S(=O)(=O)/N=C(/Nc2ccccc2C)c2ccccc2)cc1 | 39.8 (≈ 109 µM)
20 | CCOC(=O)N1CCN(C(=O)Cc2ccccc2[N+](=O)[O-])CC1 | > 48.2
21 | COc1ccccc1C(=O)Nc1ccc(Br)cc1C | < 0.7
22 | N#Cc1cccnc1N1CCN(C(=O)c2ccccc2)CC1 | 43.4 (≈ 148 µM)

Row | SMILES | solubility kinetic [µg/mL]
23 | COc1ccccc1CNC(=O)COc1ccc(C)cc1 | 26.2 (≈ 91.8 µM)
24 | CCOC(=O)Cc1csc(NC(=O)COc2cccc(C)c2)n1 | 8.4 (≈ 25.1 µM)
25 | COc1cc(C(C[N+](=O)[O-])c2c(C)cc3ccccn23)ccc1O (configuration not stated) | 8.9 (≈ 27.3 µM)
26 | CCn1c(SCC(=O)Nc2ccc(C)cc2)nc(O)cc1=O | > 47.9
27 | CSc1ccc(CN2CCCN(C)CC2)cc1 | 22.1 (≈ 88.3 µM)
28 | CC(C)CN=CC1=C(O)c2ccccc2C1=O | 29.5 (≈ 129 µM)
29 | COc1ccc(/C=N/NC(=O)c2cc[n+]([O-])cc2)cc1OC | > 45.2
30 | O=C1NC(=O)c2cc(Oc3ccc([N+](=O)[O-])cc3)ccc21 | 2.5 (≈ 8.8 µM)
31 | CN(C)c1nc2c(c(=O)[nH]c(=O)n2C)n1CCCc1ccccc1 | > 49.1
32 | CC(=O)N1NC(=Nc2ccccc2)SC1(C)C | > 37.4
33 | O=C(N/N=C\c1ccc(O)c([N+](=O)[O-])c1)C1COc2ccccc2O1 (configuration not stated) | > 51.5
34 | CCOc1ccccc1NC(=O)Nc1ccc2c(c1)OCO2 | 2.8 (≈ 9.32 µM)
35 | O=C1CC(c2cccs2)c2ccc3ccccc3c2N1 (configuration not stated) | < 0.6
36 | O=[N+]([O-])c1cccc2c3c([nH]c12)CCCC3 | < 0.2
37 | CC1CCCC(NC(=O)CSc2ncccn2)C1C (configuration not stated) | > 41.9
38 | COc1cccc(CN(C)Cc2nc(C3CC3)no2)c1 | > 41
39 | Cc1nc(CN(C)Cc2nc(Cc3cccc(F)c3)no2)cs1 | > 49.9
40 | Cc1cnc(C(=O)NCC(c2ccccc2)c2ccccc2)cn1 | 0.8 (≈ 2.52 µM)
41 | NCCNC[C@@H]1COC2(CCCCCCCCCCC2)O1 | 32.7 (≈ 110 µM)
42 | O=C(OCc1cncs1)c1ccccc1Cl | > 38.1
43 | O=C(c1ccc(NS(=O)(=O)c2ccccc2)cc1)N1CCOCC1 | > 52
44 | Cc1nonc1NC(=O)c1oc2ccc(F)cc2c1C | 0.7 (≈ 2.54 µM)

Row | SMILES | solubility kinetic [µg/mL]
45 | COc1cccc(S(=O)(=O)c2nc(C)c3c(n2)CCC3)c1 | > 45.7
46 | CCCN(CC1CC1)CC(O)c1ccccc1.O=C(O)C(=O)O (configuration not stated) | > 48.5
47 | COC(=O)c1sccc1NC(=O)CC1NCCNC1=O (configuration not stated) | 42.1 (≈ 142 µM)
48 | Cc1nc(C)c(-c2csc(Nc3ccccn3)n2)s1 | 10.2 (≈ 35.4 µM)
49 | O=C(NCc1ccc2c(c1)OCO2)C1CCCCC1 | > 39.2
50 | O=c1c2cc(Br)ccc2[nH]c(=S)n1Cc1ccccc1 | < 0.4
51 | CCOC(=O)N1CCN(C(=O)COC(=O)c2ccc(N(C)C)cc2)CC1 | > 54.5
52 | O=C1CSC(=Nc2cccc(C(=O)O)c2)N1 | > 35.4
53 | Cc1[nH]c(=O)c(C#N)c(C)c1Cl | 26 (≈ 142 µM)
54 | O=C(COC(=O)COc1cccc(F)c1)NCC1CCCCC1 | > 48.5
55 | CCn1c(=O)c2cc(C(=O)NCCC(C)C)sc2c2ccccc21 | < 0.4
56 | CCOC(=O)C1CCN(C(=O)COC(=O)/C=C/c2ccccc2)CC1 | > 51.8
57 | Cc1cc(C)c(C(=O)COC(=O)CN2C(=O)NC3(CCCC3)C2=O)cc1C | > 55.9
58 | O=C(NCCc1ccc(Cl)cc1)c1ccc(=O)[nH]c1 | 38.1 (≈ 138 µM)
59 | O=S(=O)(Nc1ccc(Br)cn1)c1cccs1 | 42.4 (≈ 133 µM)
60 | CC(C)CC(=O)Nc1ccc2ccccc2c1 | 6.2 (≈ 27.3 µM)
61 | O=C(Nc1nccs1)C1CC(=O)N(c2ccc(F)cc2)C1 (configuration not stated) | 9.7 (≈ 31.8 µM)
62 | Cc1ccc(S(=O)(=O)N2CCn3cccc3C2C)cc1 (configuration not stated) | > 43.6
63 | O=C(CNC(=O)c1cccs1)c1ccc(Br)cc1 | 17.9 (≈ 55.2 µM)
64 | Nc1nc2c(s1)CCCCCCCCCC2 | 6.6 (≈ 27.7 µM)
65 | COc1ccc(-c2ocnc2C(=O)Nc2ccc3c(c2)CCC3)cc1 | 1.7 (≈ 5.08 µM)
66 | O=C(NC(=S)NC1CCC(O)CC1)c1ccco1 (configuration not stated) | > 40.2

Row | SMILES | solubility kinetic [µg/mL]
67 | CSc1oc(-c2cccs2)nc1S(=O)(=O)c1ccccc1 | 3.9 (≈ 11.6 µM)
68 | CC1=C(C#N)C2(O)C(=O)c3ccccc3C2(O)N1 (configuration not stated) | > 36.3
69 | O=C(NCc1ccccc1Cl)NCc1ccccc1Cl | 1.1 (≈ 3.56 µM)
70 | O=C(Cn1c(CO)nc2ccccc21)NC1CCCCCC1 | > 45.2
71 | O=C(NCCCc1ccccc1)c1ccc([N+](=O)[O-])cc1Cl | 9.2 (≈ 28.9 µM)
72 | CCCC(=O)Nc1ccccc1NC(=O)c1ccc2c(c1)OCO2 | > 49
73 | O=C1NC(=O)/C(=C/c2cccc3ccccc23)S1 | > 38.3
74 | CC(=O)c1ccc(S(=O)(=O)NC2CCCCCCC2)cc1 | 45.1 (≈ 146 µM)
75 | COc1ccc(NS(=O)(=O)c2ccc(O)c(NS(=O)(=O)c3ccc(NC(C)=O)cc3)c2)cc1 | > 73.7
76 | Cc1cc(NC(=O)CSCC(=O)NC(C)c2ccccc2)no1 (configuration not stated) | > 50
77 | CC(=O)Nc1ccc(C(=O)COC(=O)c2ccco2)c(F)c1 | > 45.8
78 | COc1ccc(CNC(=O)CC2(CC(=O)O)CCCCC2)cc1 | > 47.9
79 | CN1CCN(S(=O)(=O)c2cccc(C(=O)N3CCN(c4ccccc4)CC3)c2)CC1 | 63.6 (≈ 148 µM)
80 | CC(=O)Nc1c(NC(C)(C)C)c2ccccc2oc1=O | > 41.1
81 | CC(C)CCNC(=O)C(=O)Nc1cc2c3c(c1)CC(=O)N3CCC2 | 28.5 (≈ 86.5 µM)
82 | COc1ccccc1CNC(=O)Cc1ccc(OC)c(OC)c1 | > 47.3
83 | N#CC1(C#N)C(C(=O)C23CC4CC(CC(C4)C2)C3)C12CCOCC2 (configuration not stated) | 3.3 (≈ 10.2 µM)
84 | O=C(CC(=O)NCc1ccccc1)NCc1ccccc1 | > 42.4
85 | CC(=O)c1ccc(Nc2c(C)n(C)n(-c3ccccc3)c2=O)cc1 | > 48.2
86 | CCn1c(=S)[nH]c2cc(C(=O)O)ccc21 | > 33.3
87 | Cc1ccccc1NC(=O)NCc1ccccn1 | > 36.2
